Measurements: patent US20260116874A1, “HETEROAROMATIC INDOLESULFONAMIDES” (SEED Therapeutics, Inc., priority 2023, published 2026)
pIC50: −log10 of the molar value. In brackets after ≈: the same amount, converted by molar mass. Read-outs that look alike come from different tables or passages of the source.

Assays:
[1] = Telencephalon concentrations after oral administration; assay type: in vivo, female BALB/c mice; conditions: for AUC(0-t) / Cmax: mouse, 20 mg/kg, telencephalon, female BALB/c mice, Table 8
[2] = General solubility protocol (PBS, pH 7.4); assay type: physicochemical; conditions: PBS buffer, aqueous buffer, kinetic from dmso stock, pH 7.4, 25° C.
Description: Into a 96-well rack, 15 μL of stock solution (10 mM) of each sample was placed. Into each vial of a cap-less Solubility Sample plate 485 μL of buffer was added. The assay was performed in duplicate. To each vial one stir stick was added and each vial was sealed using a molded PTFE/Silicone plug. The Solubility Sample plate was then transferred to an Eppendorf Thermomixer Comfort plate shaker and shake at 25° C. at 1100 RPM for 2 hours. […] Using a vacuum manifold, all the samples were filtered. An aliquot of 5 μL was taken from the filtrate and 5 μL blank DMSO followed by addition of 490 μL of a mixture of H2O and acetonitrile containing an internal standard (1:1). The dilution factor may be changed according to the solubility value and the LC/MS signal response.

HCT116 colorectal cells = test: Cell viability assay (CellTiter-Glo) in HCT116 cells; assay type: cell-based; conditions: Homo sapiens
Description: HCT116 colorectal cells were used in these experiments. HCT116 cells were obtained from ATCC. The CellTiter-Glo® Luminescent Cell Viability Assay Reagent was obtained from Promega.
Into a 96-well plate, 3000 HCT116 cells were seeded with 100 μL of media (McCoy's 5A Medium supplemented with 10% FBS, 100 units penicillin, and 100 μg streptomycin per mL) 24h before the experiment. For compound treatment, the liquid handling system-Pico machine was used to prepare all the compounds. Each master plate contained serial dilution of 2 compounds, including the control compound E7820. 10 mM compound stock was added to each well of the assay plate to give final concentrations of […], 0.003, 0.002 and 0 μM. Each concentration was tested in triplicate. After 72h, cell viability was determined using CellTiter-Glo Luminescent Cell Viability Assay Reagent following the manufacturer's recommended protocol. Briefly, equilibrate the assay plate and its contents at room temperature for approximately 30 minutes. 100 μL of CellTiter-Glo reagent was added to each well of the assay plate and the contents were mixed for 2 minutes at 500 rpm on an orbital shaker to induce cell lysis (Fisherbrand). The plate was incubated at room temperature for 10 minutes to stabilize luminescent signal. Then the plate was immediately placed in a plate reader (PerkinElmer Multimode Plate Reader Envision2105) and the luminescence signal (0.5 second per well integration time) was determined. IC50 values were calculated using Graphpad Prism 9 software.
Cell viability assays were performed to compare the potency of Compound 1 to Compound 143.

[3] = biological target: human ether-a-go-go related gene (hERG) channel (Homo sapiens, UniProt Q12809); test: hERG inhibition assay (SyncroPatch automated patch clamp)
Description: Inhibition of compounds on human ether-a-go-go related gene (hERG) channel was evaluated using a SyncroPatch 3848/384 automated patch clamp system. The SynchroPatch system is an independent method of measuring ion flux through ion channel proteins by measuring currents induced by ion flux into and out of the cell.
CHO herg-DUO cells stably expressing hERG channel were cultured in a medium containing F12 (HAM) medium, 10% FBS, 100 μg/mL penicillin-streptomycin, […] hygromycin and 100 µg/mL G418. Cells were split using TrypLE™ Express about three times a week, and maintained at about 80% confluence.
Compounds were prepared as a 50 mM stock solution in DMSO. The stock solution of each compound was serially diluted with DMSO to prepare 30 mM, 10 mM, 3.3 mM and 1.1 mM solutions. Working solutions 60 μM, 20 μM, 6.6 μM and 2.22 μM were prepared by 500-fold dilution of the […], 30 mM, 10 mM, 3.3 mM and 1.1 mM solutions, respectively using extracellular NMDG60 solution (80 mM NaCl, 60 mM N-methyl-d-glucamine, 4 mM KCl, 2 mM CaCl2, 1 mM MgCl2, 5 mM D-glucose and 10 mM HEPES).
Cells were harvested and added to SyncroPatch 384 chip (Nanion Technologies) and washed four times. Following establishment of the whole-cell voltage clamp configuration, cells were set to a holding potential of −90 mV for measured for 500 ms and currents were at 500 Hz and filtered at 3 kHz. The hERG current was elicited by depolarizing the membrane to +30 mV for 4.8 sec and the voltage was then taken back to −50 mV for 5.2 sec to remove the inactivation and measure the deactivating tail current for a sample interval of 15 s. The maximum amount of tail current size was used to determine hERG current amplitude. hERG current in the presence of test compounds was recorded for at least 5 min to reach a steady state and then 5 sweeps were captured. If a steady state was not reached within 10 minutes, the average peak current of the last 5 sweeps was substituted for the steady state value.

[4] = Liver microsomes stability, human; assay type: in vitro ADME
Description: (§1) A 100 μM test compound solution and PC solution (verapamil) was prepared by adding 2 μL of 10 mM stock solution in DMSO to 198 μL of 50% acetonitrile/50% water.
(§2) Two separate experiments were performed as follows:
(§3) a) With Cofactors (NADPH): 25 μL of 10 mM NADPH was added to the incubations. The final concentrations of microsomes and NADPH were 0.5 mg/mL and 1 mM, respectively.
(§4) b) Without Cofactors (NADPH): 25 μL of 100 mM Phosphate buffer was added to the incubations. The final concentration of microsomes was 0.5 mg/mL. The mixture was pre-warmed at 37° C. for 10 minutes.
(§5) The reaction was started with the addition of 2.5 μL of 100 µM control compound or test compound solutions. Verapamil was used as positive control in this study. The final concentration of test compound or control compound was 1 μM. The incubation solution was incubated in a water bath at 37° C.
(§6) Aliquots of 30 μL were taken from the reaction solution at 0.5, 15, 30, 45 and 60 minutes. The reaction was stopped by the addition of 5 volumes of cold acetonitrile with IS (100 nM alprazolam, 200 nM caffeine and 100 nM tolbutamide).
(§7) Samples were then centrifuged at 3,220 g for 40 minutes. An aliquot of 100 μL of the supernatant was mixed with 100 μL of ultra-pure H2O and then used for LC-MS/MS analysis.
(§8) Single dose PK parameters were also determined for Compound 143, a deuterated derivative of Compound 1, according to the methods described herein. […] Metabolic stability was assessed by measuring the half-life of the test compounds in human and mouse liver microsomes.

[5] = Liver microsomes stability, mouse; assay type: in vitro ADME
Description: as §1, §2, §3, §4, §5, §6, §7, §8

[6] = HCT-116, 72h, CellTiter-Glo, read-out: HCT116 Assay (IC50)
[7] = HCT-116, FIG. 5, read-out: IC50 for inhibiting cell growth in HCT116 colorectal cells
[8] = 1 μM, Table 3, read-out: Metabolic Stability Half-life, human
[9] = Table 6, read-out: Metabolic Stability Half-life, Human
[10] = 1 μM, Table 3, read-out: Metabolic Stability Half-life, mouse
[11] = Table 6, read-out: Metabolic Stability Half-life, Mouse

Sequence of human ether-a-go-go related gene (hERG) channel (Q12809 whole entry): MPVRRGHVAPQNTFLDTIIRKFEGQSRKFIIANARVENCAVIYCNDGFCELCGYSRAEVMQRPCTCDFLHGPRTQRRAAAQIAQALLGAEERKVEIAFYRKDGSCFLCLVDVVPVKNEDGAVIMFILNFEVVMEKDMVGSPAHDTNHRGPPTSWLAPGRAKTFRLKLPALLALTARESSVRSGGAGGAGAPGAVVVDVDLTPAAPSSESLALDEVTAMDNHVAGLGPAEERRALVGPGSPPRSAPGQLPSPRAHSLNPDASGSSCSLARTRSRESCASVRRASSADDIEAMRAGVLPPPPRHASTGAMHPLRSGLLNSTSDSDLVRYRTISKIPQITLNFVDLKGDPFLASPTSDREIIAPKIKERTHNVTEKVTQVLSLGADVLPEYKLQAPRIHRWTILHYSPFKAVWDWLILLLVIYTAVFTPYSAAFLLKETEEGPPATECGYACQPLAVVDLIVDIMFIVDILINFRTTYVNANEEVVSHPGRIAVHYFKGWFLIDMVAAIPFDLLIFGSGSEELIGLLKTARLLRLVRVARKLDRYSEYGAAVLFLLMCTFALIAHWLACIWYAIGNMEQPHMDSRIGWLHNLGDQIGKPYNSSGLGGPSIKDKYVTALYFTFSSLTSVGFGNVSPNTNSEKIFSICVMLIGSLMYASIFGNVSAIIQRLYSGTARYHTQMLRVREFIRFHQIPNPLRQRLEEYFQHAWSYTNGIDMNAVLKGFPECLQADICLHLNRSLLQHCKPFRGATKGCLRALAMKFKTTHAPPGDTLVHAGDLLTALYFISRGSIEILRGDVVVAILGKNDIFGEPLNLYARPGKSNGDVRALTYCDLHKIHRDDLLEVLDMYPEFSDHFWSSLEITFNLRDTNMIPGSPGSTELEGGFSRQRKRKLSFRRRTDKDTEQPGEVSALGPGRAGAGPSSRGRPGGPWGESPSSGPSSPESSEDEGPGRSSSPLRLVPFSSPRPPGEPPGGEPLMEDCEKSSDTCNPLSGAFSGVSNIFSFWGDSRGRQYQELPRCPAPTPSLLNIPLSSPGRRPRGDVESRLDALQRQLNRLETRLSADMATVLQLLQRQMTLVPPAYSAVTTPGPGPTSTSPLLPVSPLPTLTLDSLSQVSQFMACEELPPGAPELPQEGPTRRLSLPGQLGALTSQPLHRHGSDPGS

increase in telencephalon AUC compared to E7820 ([1]; compared to E7820) [fold] | AUC(0-t) [1] [ng·h/mL] | Cmax [1] [ng/mL] | solubility at 2 h [2] [µM] | pIC50 (HCT116 colorectal cells; [6]) | pIC50 (HCT116 colorectal cells; [7]) | half-life at 1 µM [4, 8] [min] | half-life at 1 µM [4, 9] [min] | half-life at 1 µM [5, 10] [min] | half-life at 1 µM [5, 11] [min] | increase in telencephalon AUC compared to Compound 1 ([1]; compared to Compound 1) [fold] | Structure (SMILES) | pIC50 [3] | hERG inhibition compared to E7820 [3]
2 | 774 | 193 | 51.5 (≈ 17.1 µg/mL) | > 6.30 | 6.59 | 66.2 | 66 | 47.1 | 47 | – | Cc1ncc(S(=O)(=O)Nc2ccc(C)c3c(C#N)c[nH]c23)s1 [Compound 1, N-(3-cyano-4-methyl-1H-indol-7-yl)-2-methyl-thiazole-5-sulfonamide] | < 4.30 | less inhibition
– | 2060 | 373 | – | > 6.30 | 6.59 | – | 93 | – | 67 | 2.5 | [2H]C([2H])([2H])c1ncc(S(=O)(=O)Nc2ccc(C)c3c(C#N)c[nH]c23)s1 [Compound 143, N-(3-cyano-4-methyl-1H-indol-7-yl)-2-(methyl-d3)thiazole-5-sulfonamide] | < 4.30 | less inhibition
– | – | – | 80.7 (≈ 27.2 µg/mL) | – | – | 50.7 | 51 | 28.7 | 29 | – | Cc1ccc(NS(=O)(=O)c2cccc(C#N)c2)c2[nH]cc(C#N)c12 [Compound E7820, E7820, reference compound] | 4.32 | –
